Assay results taken from article PMC10542788, “Discovery of a cystathionine γ-lyase (CSE) selective inhibitor targeting active-site pyridoxal 5′-phosphate (PLP) via Schiff base formation” (Scientific Reports, 2023).

Tests used:
[1] = target: T1, rat CSE (rCSE) (Rattus norvegicus, UniProt P18757); test: rCSE inhibition, H2S detection by fluorescence of HSip-1; format: biochemical; conditions: for IC50: fluorescence assay with HSip-1, 1.5 mM cysteine, 100 μM PLP, mean ± S.E., read-out: IC50, inhibitory activity towards rCSE
T1 construct: His-tag (C); made in house; host or cells: E. coli BL21
Experimental: The developed assay system employs a plate reader to detect H2S production by CSE as a fluorescence signal in a solution containing 30 μg/mL rat CSE (rCSE), 1 μM HSip-1, 100 μM pyridoxal-5′-phosphate (PLP) and 1.5 mM cysteine (a substrate) in a 384-well plate format (Fig. 1b). A large amount of rCSE was expressed in E. coli and purified on a Ni Sepharose 6 Fast Flow module. We then performed screening of a chemical library consisting of 161,600 compounds (from the Drug Discovery Initiative, the University of Tokyo) for CSE inhibitors (Fig. 1c). […] Then, a confirmation test for repeatability (n = 4) of the 160 compounds selected in the 1st screening was performed to exclude false-positives. In this step, we also excluded cysteine-reactive compounds by changing the addition order of the rCSE and cysteine (substrate) solutions. In other words, in the 1st screening, the enzyme solution was firstly added to each library compound, while in the confirmation test for repeatability of the hit compounds in the 1st screening, we firstly added the cysteine solution to each compound. This enabled us to identify and exclude cysteine-reactive compounds, based on their reaction with the added cysteine. These procedures left 80 compounds showing both more than 40% inhibition at 10 µM and similar % inhibition of rCSE irrespective of the addition order of the rCSE and cysteine solutions. In the 2nd screening, we examined the reactivity of these 80 compounds with H2S using an H2S donor[17] to exclude H2S-reactive compounds. […] In this assay, we selected 13 compounds which were non-reactive to H2S, but one was relatively unstable and two of them were the same compound, so that 11 compounds were finally selected. These compounds included some hydrazine and hydrazide derivatives, so we performed titration assay of the selected 11 compounds together with 9 commercially available hydrazine and hydrazide compounds (Supplementary Fig. S3) and calculated the half-maximal (50%) inhibitory concentration (IC50) of each compound.
The fluorescence intensity of HSip-1 was measured (λex = 490 nm, λem = 510 nm) with a microplate reader (EnVision, Perkin Elmer).
10 µL of 1.5 mM cysteine solution in 30 mM HEPES (pH 7.4) was added to 10 µL of solution containing 30 µg/mL rCSE, 100 µM PLP, 1 µM HSip-1, 0.005% tween 20 and the test compound (0.5% DMSO as a cosolvent). The mixture was incubated at 25 °C for 3 h and the fluorescence intensity of HSip-1 was measured with a microplate reader.

[2] = system: MGL; test: MGL inhibition, HSip-1 fluorescence; format: biochemical; conditions: 30 µM
Experimental: (§1) The selectivity of 1, 2 and PAG for rCSE over other RSS-producing enzymes, CBS and 3MST, was examined (Fig. 4a). CBS is a PLP-dependent enzyme, like CSE, and produces H2S from cysteine and homocysteine as substrates. 3MST is also an H2S-producing enzyme, but is not PLP-dependent and uses 3-mercaptopyruvate as a substrate. The amount of H2S produced by CBS or 3MST was evaluated in the presence or absence of the inhibitor by measuring the fluorescence intensity of HSip-1. […] We also examined the inhibitory activity towards two other PLP-dependent enzymes, MGL and ALT. MGL metabolizes L-methionine to α-ketobutyric acid, methanethiol and ammonia, and is inhibited by PAG[14]. MGL also produces H2S from homocysteine as a substrate, and this activity of MGL can be measured by fluorescence detection with HSip-1. […] The enzymatic activity of ALT can be assessed by means of a coupled assay using the reduction of pyruvate to L-lactate with lactate dehydrogenase and NADH and measuring the change in absorption of NADH.
10 µL of 200 µM homocysteine in 30 mM HEPES (pH 7.4) was added to 10 µL of a solution containing 20 µg/mL MGL (Sigma-Aldrich), 100 µM PLP, 1 µM HSip-1, 0.005% tween 20 and various concentrations of the inhibitor (0.5% DMSO as a cosolvent). The mixture was incubated at 25 °C for 100 min and the fluorescence intensity of HSip-1 was measured with a microplate reader.

[3] = system: ALT; test: ALT inhibition, coupled absorbance assay (NADH, 340 nm); format: biochemical; conditions: 30 µM
Experimental: as §1
An alanine aminotransferase activity assay kit (BioVision, Inc.) was used to measure the activity of ALT. A mixture of L-alanine, NADH, LDH (lactate dehydrogenase) and ALT was incubated at 37 °C for 15 min, then α-ketoglutarate was added to the mixture and the absorbance at 340 nm was measured with a microplate reader.

[4] = system: methionine γ-lyase (MGL); set-up: method as in PMID 12920135; conditions: cited from earlier work
[5] = system: L-alanine transaminase (ALT); set-up: method as in PMID 7364752; conditions: cited from earlier work

| Structure (SMILES) | IC50 [1] | inhibitory activity towards MGL / selectivity for CSE over MGL [2] | inhibitory activity towards ALT / selectivity for CSE over ALT [3] | inhibition of MGL [4] | inhibition of ALT [5] | selectivity for CSE over other enzymes (CBS, 3MST, MGL, ALT) ([1]; 3 µM) |
| --- | --- | --- | --- | --- | --- | --- |
| NNC(=O)C(=O)Nc1ccccc1 [Compound 4] | > 100 µM | – | – | – | – | – |
| C#CCC(N)C(=O)O (racemic) [PAG, D,L-Propargylglycine, reference compound] | – | inhibited both MGL and ALT | inhibited both MGL and ALT | inhibited | inhibited | – |
| CCNC(=O)C(=O)NN [Compound 3] | > 100 µM | – | – | – | – | – |
| CNC(=O)C(=O)NN [Compound 2] | 0.43 ± 0.02 µM | some inhibitory activity towards MGL and ALT | some inhibitory activity towards MGL and ALT | – | – | high selectivity for CSE |
